Experimental data published in ChEMBL document CHEMBL1201862, “PubChem BioAssay data set” (2004).
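Cultured in 96-well plates, cells were exposed to test compound for 48 hours across five concentrations. GI50: concentration for 50% inhibition of growth.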 Activity calls are given as the source filed them. Cut-off read from the data, not from the text of the source: active = GI50 up to about 1.1 µM and inactive = higher.

Legend:
Assay in all cases: growth of human tumour cells (NCI), 48 h
LOX IMVI = tested on: LOX IMVI
HCC 2998 = tested on: HCC 2998
BT-549 = tested on: BT-549
OVCAR-8 = tested on: OVCAR-8
Hs-578T = tested on: Hs-578T
M14 = tested on: M14
SF-268 = tested on: SF-268
K562 = tested on: K562
HL-60 = tested on: HL-60
SK-OV-3 = tested on: SK-OV-3
SF-295 = tested on: SF-295
SF-539 = tested on: SF-539
HOP-62 = tested on: HOP-62
RPMI-8226 = tested on: RPMI-8226
ACHN = tested on: ACHN
OVCAR-4 = tested on: OVCAR-4
SW-620 = tested on: SW-620
HCT-15 = tested on: HCT-15
UACC-62 = tested on: UACC-62
COLO 205 = tested on: COLO 205

Compound	GI50 (LOX IMVI)	GI50 (HCC 2998)	GI50 (BT-549)	GI50 (OVCAR-8)	GI50 (Hs-578T)	GI50 (M14)	GI50 (SF-268)	GI50 (K562)	GI50 (HL-60)	GI50 (SK-OV-3)	GI50 (SF-295)	GI50 (SF-539)	GI50 (HOP-62)	GI50 (RPMI-8226)	GI50 (ACHN)	GI50 (OVCAR-4)	GI50 (SW-620)	GI50 (HCT-15)	GI50 (UACC-62)	GI50 (COLO 205)
CO[C@@]12[C@H](COC(N)=O)C3=C(C(=O)C(C)=C(N)C3=O)N1C[C@H]1[C@@H]2N1C (some centres not stated) [PORFIROMYCIN]	0.794 µM (active)	1.95 µM (inactive)	12.2 µM (inactive)	3.95 µM (inactive)	16.6 µM (inactive)	0.65 µM (active)	3.46 µM (inactive)	7.5 µM (inactive)	0.34 µM (active)	4.62 µM (inactive)	0.398 µM (active)	3.56 µM (inactive)	0.291 µM (active)	8.41 µM (inactive)	0.38 µM (active)	9.68 µM (inactive)	1.87 µM (inactive)	2.57 µM	0.466 µM (active)	2.22 µM (inactive)
CCCCc1ccc(Nc2nc(Cl)c3ccn(C4CC(Oc5ccc(C)cc5)C(COc5ccc(C)cc5)O4)c3n2)cc1 (configuration not stated)	> 46.5 µM (inactive)	> 46.5 µM (inactive)	12.6 µM (inactive)	> 46.5 µM (inactive)	> 100 µM (inactive)	> 46.5 µM (inactive)	> 100 µM (inactive)	> 46.5 µM (inactive)	> 46.5 µM (inactive)	> 46.5 µM (inactive)	> 46.5 µM (inactive)	> 46.5 µM (inactive)	> 100 µM (inactive)	> 46.5 µM (inactive)	25.2 µM (inactive)	> 31.6 µM (inactive)	> 46.5 µM (inactive)	> 46.5 µM	24.5 µM (inactive)	> 46.5 µM (inactive)
c1ccc2sc(C3(N4CCCCC4)CCCCCC3)cc2c1	18.5 µM (inactive)	13.4 µM (inactive)	24.7 µM (inactive)	26.1 µM (inactive)	18.9 µM (inactive)	27 µM (inactive)	25.4 µM (inactive)	16.4 µM (inactive)	2.1 µM (inactive)	25.3 µM (inactive)	22.4 µM (inactive)	21 µM (inactive)	28.8 µM (inactive)	14.2 µM (inactive)	17.6 µM (inactive)	25.8 µM (inactive)	12 µM (inactive)	17.3 µM	25.4 µM (inactive)	16.6 µM (inactive)
c1cc2nnc1SCCCSc1ccc(nn1)SCCCS2	> 21.9 µM (inactive)	> 37.8 µM (inactive)	19.9 µM (inactive)	> 39.6 µM (inactive)	26.5 µM (inactive)	> 25.9 µM (inactive)	22.2 µM (inactive)	> 27.9 µM (inactive)	> 19.9 µM (inactive)	24.7 µM (inactive)	20.5 µM (inactive)	23.5 µM (inactive)	16 µM (inactive)	> 25.3 µM (inactive)	> 43.7 µM (inactive)	16.1 µM (inactive)	> 53.3 µM (inactive)		> 25.8 µM (inactive)	> 47 µM (inactive)
CN(C)CCNC(=O)c1ccc(NCCCN(C)CCCNc2ccc(C(=O)NCCN(C)C)c3nc4ccccc4c(O)c23)c2c(O)c3ccccc3nc12	< 0.01 µM (active)	< 0.01 µM (active)	0.254 µM (active)	< 0.01 µM (active)	0.0223 µM (active)	0.187 µM (active)	< 0.01 µM (active)	0.0394 µM (active)	< 0.0229 µM (active)	< 0.0146 µM (active)	0.0442 µM (active)	0.274 µM (active)	< 0.01 µM (active)	< 0.01 µM (active)	0.0466 µM (active)	< 0.0164 µM (active)	0.0171 µM (active)	0.486 µM	0.0525 µM (active)	< 0.0109 µM (active)
Cc1cc(SCC(=O)c2ccc(Br)cc2)cc(C)[o+]1	32.1 µM (inactive)	25.2 µM (inactive)	39.7 µM (inactive)	32.4 µM (inactive)	47.6 µM (inactive)	26.5 µM (inactive)	47.6 µM (inactive)	24.9 µM (inactive)	13.5 µM (inactive)	60 µM (inactive)	26.6 µM (inactive)	23 µM (inactive)	36.8 µM (inactive)	21.7 µM (inactive)	31.2 µM (inactive)	24.9 µM (inactive)	34 µM (inactive)	32.1 µM	31.4 µM (inactive)	31.9 µM (inactive)
Cc1ccccc1NC(=O)C(=O)CC(=O)c1sc(Nc2ccccc2[N+](=O)[O-])nc1C	37.4 µM (inactive)	24.4 µM (inactive)	30.7 µM (inactive)	43.4 µM (inactive)	40.8 µM (inactive)	39.7 µM (inactive)	38.5 µM (inactive)	49.2 µM (inactive)	60.4 µM (inactive)	25.2 µM (inactive)	22.5 µM (inactive)	29.9 µM (inactive)	25.2 µM (inactive)	27.9 µM (inactive)	20.3 µM (inactive)	18.2 µM (inactive)	36.1 µM (inactive)	52.4 µM	18.2 µM (inactive)	86.1 µM (inactive)
O=C1NC(=S)NC(=O)C1=C/C=C/c1ccc([N+](=O)[O-])cc1	6.76 µM (inactive)	18.4 µM (inactive)	10.6 µM (inactive)	22.1 µM (inactive)	10.7 µM (inactive)	15 µM (inactive)	15.2 µM (inactive)	3.72 µM (inactive)	3.71 µM (inactive)	20.2 µM (inactive)	17.3 µM (inactive)	13.8 µM (inactive)	18.7 µM (inactive)	7.24 µM (inactive)	18 µM (inactive)	19.8 µM (inactive)	4.9 µM (inactive)	14.3 µM	11 µM (inactive)	13.2 µM (inactive)
O=C1SC(c2ccc(Cl)cc2)(c2ccc(Cl)cc2)c2ccccc21	80.7 µM (inactive)	38.3 µM (inactive)	> 100 µM (inactive)	> 100 µM (inactive)	81.8 µM (inactive)	87.9 µM (inactive)	> 100 µM (inactive)	44.5 µM (inactive)	28.2 µM (inactive)	> 100 µM (inactive)	97.5 µM (inactive)	> 100 µM (inactive)	> 100 µM (inactive)	55.8 µM (inactive)	91 µM (inactive)	33.5 µM (inactive)	> 100 µM (inactive)	34.8 µM	98.4 µM (inactive)	83 µM (inactive)
COC(=O)c1ccc(Cc2cc(Cc3ccc(C(=O)OC)cc3)cc(Cc3ccc(C(=O)OC)cc3)c2)cc1	> 25 µM (inactive)	> 25 µM (inactive)	> 25 µM (inactive)	> 25 µM (inactive)	> 25 µM (inactive)	> 25 µM (inactive)	> 25 µM (inactive)	> 25 µM (inactive)	> 25 µM (inactive)	> 25 µM (inactive)	> 25 µM (inactive)	> 25 µM (inactive)	> 25 µM (inactive)	> 25 µM (inactive)	> 25 µM (inactive)	16.5 µM (inactive)	> 25 µM (inactive)	> 25 µM	> 25 µM (inactive)	
C=C(C)C(=O)O[C@H]1C[C@@]23O[C@@H]2CCC(=C[C@H]2OC(=O)C(=C)[C@H]12)COC3O (some centres not stated)	14.9 µM (inactive)	69.3 µM (inactive)	37.1 µM (inactive)	39.6 µM (inactive)	> 100 µM (inactive)	57.5 µM (inactive)	> 100 µM (inactive)	20.2 µM (inactive)	14.7 µM (inactive)	> 100 µM (inactive)	> 100 µM (inactive)	> 100 µM (inactive)	> 100 µM (inactive)	23.4 µM (inactive)	39.9 µM (inactive)	> 100 µM (inactive)	17.9 µM (inactive)	19.5 µM	54.1 µM (inactive)	21.2 µM (inactive)
Cc1cc(NCc2ccccc2)c2ccccc2[n+]1CCCCCCCCCC[n+]1c(C)cc(NCc2ccccc2)c2ccccc21.[O-][Cl+3]([O-])([O-])[O-].[O-][Cl+3]([O-])([O-])[O-]	0.238 µM (active)	0.562 µM (active)	0.569 µM (active)	0.431 µM (active)	0.65 µM (active)	1.21 µM (inactive)	0.478 µM (active)	0.271 µM (active)	0.265 µM (active)	0.365 µM (active)	0.391 µM (active)	0.308 µM (active)		0.124 µM (active)	0.565 µM (active)	1.3 µM (inactive)	0.752 µM (active)	1.89 µM	0.31 µM (active)	0.236 µM (active)
COc1cc2c(c(OC)c1OC)-c1ccc(SC)c(=O)cc1C(NC=O)CC2 (configuration not stated)	< 0.01 µM (active)	< 0.01 µM (active)	0.239 µM (active)	< 0.01 µM (active)	< 0.01 µM (active)	< 0.01 µM (active)	< 0.01 µM (active)	< 0.01 µM (active)	< 0.01 µM (active)	0.0371 µM (active)	< 0.01 µM (active)	< 0.01 µM (active)	< 0.01 µM (active)	< 0.01 µM (active)	< 0.01 µM (active)	66.4 µM (inactive)	< 0.0275 µM (active)	< 0.01 µM	< 0.01 µM (active)	< 0.01 µM (active)
CCOc1ccc(NCC2CC/C(=C\C=C\c3ccccc3)C2=O)cc1 (configuration not stated)	11 µM (inactive)	31.9 µM (inactive)	15.2 µM (inactive)	16.9 µM (inactive)	29 µM (inactive)	13.7 µM (inactive)	16.4 µM (inactive)	3.61 µM (inactive)	17.8 µM (inactive)	> 100 µM (inactive)	26.5 µM (inactive)	18.9 µM (inactive)	29.9 µM (inactive)	10.9 µM (inactive)	30.5 µM (inactive)	27.5 µM (inactive)	5.83 µM (inactive)	5.41 µM	24.4 µM (inactive)	13.7 µM (inactive)
